The experiment deals with dopamine D1 receptor (Rattus norvegicus). Nature of the experiment: Effective concentration that gives maximal stimulation of cyclic AMP production over the concentration range tested.

pEC50: −log10 of the molar value.

The text below walks through data of BindingDB's records for doi:10.1021/jm00367a006 (1984).

With `CN1Cc2c(N)cccc2[C@H](c2ccc(O)c(O)c2)C1`, the pEC50 – broadly, the negative decadic logarithm of the EC50, by convention in mol/L – is 5.73.
The result for `CN1Cc2c(N)cccc2C(c2ccc(O)c(O)c2)C1` (configuration not stated) [4-(8-Amino-2-methyl-1,2,3,4-tetrahydro-isoquinolin-4-yl)-benzene-1,2-diol] reads 5.54.
